From US9040527B2, “Pyrimidinediamine kinase inhibitors” (Rigel Pharmaceuticals, Inc., priority 2008, dated 2015)

What was measured:
PLK1 [1] = target: T1, PLK1 (Homo sapiens, UniProt P53350); experiment: Cellular PLK1 assay in K562 cells overexpressing CDC25C; format: cell-based; design: endogenous in cells; host or cells: K562 (human chronic myelogenous leukemia) overexpressing CDC25C, nocodazole-arrested; settings: nocodazole arrested, cdc25c p-Ser198 readout
In short: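 K562 cells overexpressing CDC25C were arrested with 333 nM nocodazole for 18 h at 37 °C, then exposed to compound at 8 points from 10 μM to 0.005 μM in duplicate for 120 min. After fixation and permeabilization, cells were stained for cdc25c pSer198 with a PE secondary and read by flow cytometry, 10,000 cells per well.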

PLK1 [2] = target: T1, PLK1; experiment: In vitro PLK1 ELISA assay (biochemical); design: purchased Cell Signalling 7728
In short: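 Commercial PLK1 phosphorylates neutravidin-captured biotinylated CHK2 peptide for 45 min at room temperature in HEPES pH 7.2 with Mg2+/Mn2+/DTT, compounds at 10 μM to 0.005 μM. Phospho-CHK2(T68) antibody plus HRP secondary gives chemiluminescent read-out used for IC50.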

[3] = ELISA, CHK2-derived peptide substrate, read-out: PLK1 IC50 (μM) biochemical assay
[4] = read-out: IC50 in biochemical in vitro PLK1 ELISA assay (less than 10 μM)
[5] = read-out: IC50 in biochemical ELISA assay (less than 0.01 μM)

T1 sequence (P53350 whole entry): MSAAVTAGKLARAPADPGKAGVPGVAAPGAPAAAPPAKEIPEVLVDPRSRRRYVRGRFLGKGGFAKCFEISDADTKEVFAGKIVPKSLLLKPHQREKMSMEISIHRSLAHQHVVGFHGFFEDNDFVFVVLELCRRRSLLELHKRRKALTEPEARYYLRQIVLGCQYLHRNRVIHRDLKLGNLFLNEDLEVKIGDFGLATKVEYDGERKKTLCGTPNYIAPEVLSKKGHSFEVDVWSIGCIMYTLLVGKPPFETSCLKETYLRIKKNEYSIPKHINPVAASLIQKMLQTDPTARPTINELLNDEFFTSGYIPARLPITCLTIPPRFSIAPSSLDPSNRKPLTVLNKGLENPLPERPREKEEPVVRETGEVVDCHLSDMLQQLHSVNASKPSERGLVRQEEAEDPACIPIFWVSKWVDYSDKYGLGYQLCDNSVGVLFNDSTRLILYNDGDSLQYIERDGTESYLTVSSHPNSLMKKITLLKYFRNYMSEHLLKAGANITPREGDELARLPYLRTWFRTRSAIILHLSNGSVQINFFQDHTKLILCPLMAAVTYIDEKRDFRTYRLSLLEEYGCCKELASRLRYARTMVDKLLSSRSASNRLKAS

SMILES | IC50 (PLK1 [1]) | IC50 (PLK1 [2]; [3]) | IC50 (PLK1 [2]; [4]) | IC50 (PLK1 [2]; [5])
Cc1cc(Nc2ncc(F)c(Nc3ccc4c(n3)N(CC3CCC3)C(=O)CO4)n2)ccc1N1CCN(C)CC1 [compound 112, 4-(cyclobutylmethyl)-6-(5-fluoro-2-(3-methyl-4-(4-methylpiperazin-1-yl)phenylamino)pyrimidin-4-ylamino)-2H-pyrido[3,2-b][1,4]oxazin-3(4H)-one] | ≥ 10 µM | ≥ 10 µM | – | –
COc1cnc(Nc2cccc(N3CCN(C)CC3)c2)nc1Nc1ccc2c(n1)NC(=O)CO2 [compound 56, 6-(5-methoxy-2-(3-(4-methylpiperazin-1-yl)phenylamino)pyrimidin-4-ylamino)-2H-pyrido[3,2-b][1,4]oxazin-3(4H)-one] | ≥ 10 µM | < 0.5 µM | < 10 µM | –
CCCN1C(=O)COc2ccc(Nc3nc(Nc4ccc(N5CCN(C)CC5)c(C(F)(F)F)c4)ncc3F)nc21 [compound 135, 6-(5-fluoro-2-(4-(4-methylpiperazin-1-yl)-3-(trifluoromethyl)phenyl-amino)pyrimidin-4-ylamino)-4-propyl-2H-pyrido[3,2-b][1,4]oxazin-3(4H)-one] | ≥ 10 µM | ≥ 10 µM | – | –
CN1CCN(c2cccc(Nc3ncc(F)c(Nc4ccc5c(n4)N(Cc4ccc(F)cc4)C(=O)CO5)n3)c2)CC1 [compound 132, 6-(5-fluoro-2-(3-(4-methylpiperazin-1-yl)phenylamino)pyrimidin-4-ylamino)-4-(4-fluorobenzyl)-2H-pyrido[3,2-b][1,4]oxazin-3(4H)-one] | 0.5 to 5 µM | 5 to 10 µM | < 10 µM | –
CN1CCN(c2cc(Nc3ncc(F)c(Nc4ccc5c(n4)NCCO5)n3)cc(C(F)(F)F)c2)CC1 [compound 24, N4-(3,4-dihydro-2H-pyrido[3,2-b][1,4]oxazin-6-yl)-5-fluoro-N2-(3-(4-methylpiperazin-1-yl)-5-(trifluoro-methyl)phenyl)pyrimidine-2,4-diamine] | ≥ 10 µM | < 0.5 µM | < 10 µM | –
Cc1ccc(Nc2ncc(F)c(Nc3ccc4c(n3)NCCO4)n2)cc1N1CCN(C)CC1 [compound 22, N4-(3,4-dihydro-2H-pyrido[3,2-b][1,4]oxazin-6-yl)-5-fluoro-N2-(4-methyl-3-(4-methylpiperazin-1-yl)phenyl)pyrimidine-2,4-diamine] | ≥ 10 µM | ≥ 10 µM | – | –
CN1CCN(c2cccc(Nc3ncc(F)c(Nc4ccc5c(n4)NC(=O)CO5)n3)c2)CC1 [compound 157, 6-(5-fluoro-2-(3-(4-methylpiperazin-1-yl)phenylamino)pyrimidin-4-ylamino)-2H-pyrido[3,2-b][1,4]oxazin-3(4H)-one] | < 0.5 µM | < 0.5 µM | < 10 µM | –
COc1ccc(CN2C(=O)COc3ccc(Nc4nc(Nc5cccc(N6CCN(C)CC6)c5)ncc4C)nc32)cc1 [compound 125, 4-(4-methoxybenzyl)-6-(5-methyl-2-(3-(4-methylpiperazin-1-yl)phenylamino)pyrimidin-4-ylamino)-2H-pyrido[3,2-b][1,4]oxazin-3(4H)-one] | ≥ 10 µM | 5 to 10 µM | < 10 µM | –
CCCN1CCOc2ccc(Nc3nc(Nc4ccc(N5CC6CC5CN6C(C)=O)c(C)c4)ncc3C)nc21 (stereo not drawn) [compound 39, 1-(5-(2-methyl-4-(5-methyl-4-(4-propyl-3,4-dihydro-2H-pyrido[3,2-b][1,4]oxazin-6-ylamino)pyrimidin-2-ylamino)phenyl)-2,5-diazabicyclo[2.2.1]heptan-2-yl)ethanone] | 0.5 to 5 µM | 0.5 to 5 µM | < 10 µM | –
CCCN1C(=O)COc2ccc(Nc3nc(Nc4ccc(N5CCNCC5)c(C(F)(F)F)c4)ncc3F)nc21 [compound 138, 6-(5-fluoro-2-(4-(piperazin-1-yl)-3-(trifluoromethyl)phenyl-amino)pyrimidin-4-ylamino)-4-propyl-2H-pyrido[3,2-b][1,4]oxazin-3(4H)-one] | ≥ 10 µM | ≥ 10 µM | – | –
CCN1C(=O)COc2ccc(Nc3nc(Nc4ccc(N5CCN(C)CC5)nc4)ncc3C)nc21 [compound 101, 4-ethyl-6-(5-methyl-2-(6-(4-methylpiperazin-1-yl)pyridin-3-ylamino)pyrimidin-4-ylamino)-2H-pyrido[3,2-b][1,4]oxazin-3(4H)-one] | 0.5 to 5 µM | < 0.5 µM | < 10 µM | –
CN1CCN(c2cccc(Nc3ncc(F)c(Nc4ccc5c(c4)NC(=O)CO5)n3)c2)CC1 [compound 17, 6-(5-fluoro-2-(3-(4-methylpiperazin-1-yl)phenylamino)pyrimidin-4-ylamino)-2H-benzo[b][1,4]oxazin-3(4H)-one] | 0.5 to 5 µM | < 0.5 µM | < 10 µM | < 0.01 µM
Cc1cnc(Nc2cccc(N3CCN(C)CC3)c2)nc1Nc1ccc2c(n1)N(CC1CC1)C(=O)CO2 [compound 129, 4-(cyclopropylmethyl)-6-(5-methyl-2-(3-(4-methylpiperazin-1-yl)phenylamino)pyrimidin-4-ylamino)-2H-pyrido[3,2-b][1,4]oxazin-3(4H)-one] | 0.5 to 5 µM | < 0.5 µM | < 10 µM | < 0.01 µM
CN1CCN(c2cc(Nc3ncc(F)c(Nc4ccc5c(n4)NC(=O)CO5)n3)cc(C(F)(F)F)c2)CC1 [compound 29, 6-(5-fluoro-2-(3-(4-methylpiperazin-1-yl)-5-(trifluoromethyl)phenyl-amino)pyrimidin-4-ylamino)-2H-pyrido[3,2-b][1,4]oxazin-3(4H)-one] | ≥ 10 µM | < 0.5 µM | < 10 µM | –
Cc1cc(Nc2ncc(C)c(Nc3ccc4c(n3)N(CC3CCC3)C(=O)CO4)n2)ccc1N1CCN(C)CC1 [compound 115, 4-(cyclobutylmethyl)-6-(5-methyl-2-(3-methyl-4-(4-methylpiperazin-1-yl)phenylamino)pyrimidin-4-ylamino)-2H-pyrido[3,2-b][1,4]oxazin-3(4H)-one] | ≥ 10 µM | 0.5 to 5 µM | < 10 µM | –
COc1cnc(Nc2cccc(N3CCN(C)CC3)c2)nc1Nc1ccc2c(n1)NCCO2 [compound 52, N4-(3,4-dihydro-2H-pyrido[3,2-b][1,4]oxazin-6-yl)-5-methoxy-N2-(3-(4-methylpiperazin-1-yl)phenyl)pyrimidine-2,4-diamine] | 0.5 to 5 µM | < 0.5 µM | < 10 µM | –
Cc1cc(Nc2ncc(C)c(Nc3ccc4c(n3)NC(=O)C(C)(C)O4)n2)ccc1N1CCN(C)CC1 [compound 96, 2,2-dimethyl-6-(5-methyl-2-(3-methyl-4-(4-methylpiperazin-1-yl)phenylamino)pyrimidin-4-ylamino)-2H-pyrido[3,2-b][1,4]oxazin-3(4H)-one] | ≥ 10 µM | 5 to 10 µM | < 10 µM | –
CN1C(=O)COc2ccc(Nc3nc(Nc4ccc(N5CCN(S(C)(=O)=O)CC5)cc4)ncc3Cl)cc21 [compound 197, 6-(5-chloro-2-(4-(4-(methylsulfonyl)piperazin-1-yl)phenyl-amino)pyrimidin-4-ylamino)-4-methyl-2H-benzo[b][1,4]oxazin-3(4H)-one] | 0.5 to 5 µM | ≥ 10 µM | – | –
CCCN1C(=O)COc2ccc(Nc3nc(Nc4ccc(N5CCN(C)CC5)c(C(F)(F)F)c4)ncc3C)nc21 [compound 136, 6-(5-methyl-2-(4-(4-methylpiperazin-1-yl)-3-(trifluoromethyl)phenyl-amino)pyrimidin-4-ylamino)-4-propyl-2H-pyrido[3,2-b][1,4]oxazin-3(4H)-one] | ≥ 10 µM | ≥ 10 µM | – | –
CCOc1ccc(N2CCN(C)CC2)cc1Nc1ncc(F)c(Nc2ccc3c(n2)NCCO3)n1 [compound 45, N4-(3,4-dihydro-2H-pyrido[3,2-b][1,4]oxazin-6-yl)-N2-(2-ethoxy-5-(4-methylpiperazin-1-yl)phenyl)-5-fluoro-pyrimidine-2,4-diamine] | < 0.5 µM | < 0.5 µM | < 10 µM | –
CC(C)Oc1cc(Nc2ncc(F)c(Nc3ccc4c(n3)NCCO4)n2)cc(N2CCN(C)CC2)c1 [compound 26, N4-(3,4-dihydro-2H-pyrido[3,2-b][1,4]oxazin-6-yl)-5-fluoro-N2-(3-isopropoxy-5-(4-methylpiperazin-1-yl)phenyl)pyrimidine-2,4-diamine] | < 0.5 µM | < 0.5 µM | < 10 µM | < 0.01 µM
CCN1CCN(c2ccc(Nc3ncc(Cl)c(Nc4ccc5c(c4)N(CC)C(=O)CO5)n3)cc2)CC1 [compound 183, 6-(5-chloro-2-(4-(4-ethylpiperazin-1-yl)phenylamino)pyrimidin-4-ylamino)-4-ethyl-2H-benzo[b][1,4]oxazin-3(4H)-one] | 0.5 to 5 µM | 0.5 to 5 µM | < 10 µM | –
CN1CCN(c2cccc(Nc3ncc(F)c(Nc4ccc5c(n4)NCCO5)n3)c2)CC1 [compound 167, N4-(3,4-dihydro-2H-pyrido[3,2-b][1,4]oxazin-6-yl)-5-fluoro-N2-(3-(4-methylpiperazin-1-yl)phenyl)pyrimidine-2,4-diamine] | < 0.5 µM | < 0.5 µM | < 10 µM | –
CC(C)c1cc(Nc2ncc(F)c(Nc3ccc4c(n3)NC(=O)CO4)n2)cc(N2CCN(C)CC2)c1 [compound 44, 6-(5-fluoro-2-(3-isopropyl-5-(4-methylpiperazin-1-yl)phenylamino)pyrimidin-4-ylamino)-2H-pyrido[3,2-b][1,4]oxazin-3(4H)-one] | ≥ 10 µM | < 0.5 µM | < 10 µM | –
